Laboratory results published in patent publication EP4549150A1, “RESIN COMPOSITION FOR THREE-DIMENSIONAL PRINTING” (Cubicure GmbH, priority 2023, dated 2025).
Marks after values point to notes of the source that are not given here.

Legend:
Type in all cases: physicochemical
[1] = Viscosity by rheology (temperature ramp, cone-plate rheometer); details: shear rate 60 s^-1
Protocol: Viscosity is another crucial parameter on the development of a reactive diluent. To obtain an effective reactive diluent, monomers providing a low viscosity need to be obtained. The referred viscosity is preferably between 5 and 100 mPa.s, more preferably between 5 and 50 mPa.s, and even more preferably 5 and 20 mPa.s. The presented viscosities refer to the process temperature which can be between 30-150°C. The viscosity was determined via rheology. Rheology measurements were performed using an Anton Paar MCR 102 rheometer, equipped with a P-PTD 200/GL Peltier glass plate and an H-PTD200 heating hood. For measuring the rheological properties, a temperature ramp experiment was performed from 25-100°C with a heating rate of 0.5°C min^-1, using a CP25 measurement system (cone plate with a 2° angle and 25 mm diameter) at a gap distance of 0.1 mm and with a shear rate of 60 s^-1.

[2] = Volatility: weight loss after 24 hours in oven; details: for weight loss relative to example 1: ratio to weight loss of example 1
Protocol: Volatility can be assessed from the weight lost after 24 hours, and is preferably below 10%, more preferably below 5% and even more preferable below 1% at the process temperature (between 30 and 150°C). For the determination of the volatility of the compounds 25 mL flasks (Ø 30 mm) with approximately 2 grams of the test compound were placed in a Memmert oven at 50 °C and 80°C for 24 hours and the volatility was determined as the weight loss in percent (w/w).

[3] = Photo-DSC photo-reactivity study; details: 50°C, 365 nm, 1% w/w TPO-L; for t95%: time when 95% of the total heat of polymerization has evolved; for tmax: time when maximum heat evolution was reached
Protocol: Photo-DSC (differential scanning calorimetry) studies were performed using a Netzsch DSC 204 F1 containing an autosampler and coupled to an intracooler IC85 cooling device. The system was connected to an Omnicure LX500 controller with a 365 nm LED and the power intensity was set on the sample at 17 mW cm^-2 (measured using a Thorlabs SMC100 powermeter and the corresponding S310C thermal power head). The test samples were mixed in a vortex mixer for 3 minutes with 1% w/w of TPO-L (a commercially available photoinitiator) and then […] were transferred to an aluminum crucible without lid. All experiments were conducted under Nitrogen atmosphere (flow = 20 mL/min) at 50°C and the samples were irradiated for 5 minutes. Triplicate DSC measurements were performed for each example. The measured heat of polymerization (ΔH) was calculated by integrating the area under the curve from 0 to 200 s.
Here, tmax is the time when maximum heat evolution was reached and t95% corresponds to the point when 95% of the total heat of polymerization has evolved (0 s corresponds to the moment when light is triggered). The double bound conversion (DBC) was calculated from the experimentally obtained heat of polymerization and the theoretical polymerization enthalpy indicated in the literature (56 kJ mol^-1 for methacrylates).

[4] = Dynamic Mechanical Analysis (DMA) of printed specimens; details: increasing the percentage of reactive diluent from 10 to 30% in X-851-1066
Protocol: For the (thermo)mechanical tests and water uptake tests, Example 1 or Reference 2 were mixed with two commercially available oligomers, namely Ebecryl 8811 (Allnex) a difunctional aliphatic urethane acrylate and BR-952 (Bomar) a difunctional aliphatic urethane methacrylate in different ratios.
For the sample preparation a speedmixer (DAC 150.1 FVZ-K, Hauschild) was used. 70 g of the total formulation was mixed at 3000 rpm for 10 minutes. After that the resin composition was degassed until no air bubbles were released.
Test specimens were printed on a Cubicure Caligma 200 DLP 405 nm. Light Pulse Duration was set to 6000, corresponding to 1.5 s total exposure time, and print speed to 20 mm/s. Processing temperature was 35°C, due to the high volatility of Reference 2.
Dynamic Mechanical Analysis (DMA) of the printed specimens measuring 50x5x1 mm^3 was performed using a DMA8000 Dynamic Mechanical Analyzer from PerkinElmer. The measurements were performed using the tension mode, from 30-160 °C with a heating rate of 2°C min^-1 and frequency of 1 Hz. In these experiments the evolution of the storage modulus G' with increasing temperature was observed and the Tg was determined (maximum value for tan δ).

Compound: C=C(C)C(=O)OC1CCCCC1O (stereo not drawn) [Ex1, 2-hydroxycyclohexyl methacrylate]
- Viscosity ([1]; 25°C (room temperature)): 53 mPa.s
- Viscosity ([1]; 40°C): 26 mPa.s
- Viscosity ([1]; 50°C): 16 mPa.s
- Viscosity ([1]; 70°C): 7 mPa.s
- Viscosity ([1]; 90°C): 4 mPa.s
- Viscosity ([1]; 100°C): 3 mPa.s
- Volatility [weight loss %] ([2]; 50°C): 5%
- Volatility [weight loss %] ([2]; 80°C): 20%
- t95% [3]: 43 s
- tmax [3]: 14 s
- decrease of Tg of the photopolymer [4]: 4%

Compound: C=C(C)C(=O)OC1CCCCC1OC(=O)C1CCCCC1 (stereo not drawn) [Ex2, 2-(cyclohexylcarbonyloxy)cyclohexyl methacrylate]
- Viscosity ([1]; 25°C (room temperature)): 27 mPa.s
- Viscosity ([1]; 40°C): 17 mPa.s
- Viscosity ([1]; 50°C): 12 mPa.s
- Viscosity ([1]; 70°C): 7 mPa.s
- Viscosity ([1]; 90°C): 4 mPa.s
- Viscosity ([1]; 100°C): 4 mPa.s
- Volatility [weight loss %] ([2]; 50°C): 1%
- Volatility [weight loss %] ([2]; 80°C): 14%
- t95% [3]: 66 s
- tmax [3]: 17 s

Compound: C=C(C)C(=O)OC1CCCCC1OC(=O)C(C)(C)C (stereo not drawn) [Ex3, 2-(isopropenylcarbonyloxy)cyclohexyl 2,2-dimethylpropionate]
- Viscosity ([1]; 25°C (room temperature)): 13 mPa.s
- Viscosity ([1]; 40°C): 9 mPa.s
- Viscosity ([1]; 50°C): 6 mPa.s
- Viscosity ([1]; 70°C): 4 mPa.s
- Viscosity ([1]; 90°C): 2 mPa.s
- Viscosity ([1]; 100°C): 2 mPa.s
- Volatility [weight loss %] ([2]; 50°C): 2.7%
- Volatility [weight loss %] ([2]; 80°C): 21%
- t95% [3]: 87 s
- tmax [3]: 51 s

Compound: C=C(C)C(=O)OC1CCCCC1OC(=O)Cc1ccccc1 (stereo not drawn) [Ex4, 2-(benzylcarbonyloxy)cyclohexyl methacrylate]
- Viscosity ([1]; 25°C (room temperature)): 110 mPa.s
- Viscosity ([1]; 25°C (room temperature), listed as Example 4): 174 mPa.s
- Viscosity ([1]; 40°C): 53 mPa.s
- Viscosity ([1]; 50°C): 31 mPa.s
- Viscosity ([1]; 70°C): 13 mPa.s
- Viscosity ([1]; 90°C): 8 mPa.s
- Viscosity ([1]; 100°C): 7 mPa.s
- Volatility [weight loss %] ([2]; 50°C): 0.09%
- Volatility [weight loss %] ([2]; 80°C): 17%
- t95% [3]: 174 s
- tmax [3]: 26 s

Compound: C=C(C)C(=O)OC1CCCCC1OC(=O)C(CC)CCCC (stereo not drawn) [Ex5, 2-(isopropenylcarbonyloxy)cyclohexyl 2-ethylhexanoate]
- Viscosity ([1]; 25°C (room temperature)): 174 mPa.s
- Viscosity ([1]; 25°C (room temperature), listed as Example 5): 110 mPa.s
- Viscosity ([1]; 40°C): 101 mPa.s
- Viscosity ([1]; 40°C, listed as example 5): 53 mPa.s
- Viscosity ([1]; 50°C): 65 mPa.s
- Viscosity ([1]; 70°C): 34 mPa.s
- Viscosity ([1]; 90°C): 20 mPa.s
- Viscosity ([1]; 100°C): 19 mPa.s
- Volatility [weight loss %] ([2]; 50°C): 0.6%
- Volatility [weight loss %] ([2]; 80°C): 1.9** %

Compound: C=C(C)C(=O)OCCO [Ref2, 2-hydroxyethylmethacrylate, reference compound]
- Viscosity ([1]; 25°C (room temperature)): 6 mPa.s
- Viscosity ([1]; 40°C): 4 mPa.s
- Viscosity ([1]; 50°C): 3 mPa.s
- Viscosity ([1]; 70°C): 2 mPa.s
- Viscosity ([1]; 90°C): 1 mPa.s
- Viscosity ([1]; 100°C): 1 mPa.s
- Volatility [weight loss %] ([2]; 50°C): 34%
- Volatility [weight loss %] ([2]; 80°C): 89%
- weight loss relative to example 1 ([2]; 80°C): more than 4 times
- t95% [3]: 65 s
- tmax [3]: 43 s
- decrease of Tg of the photopolymer [4]: 13%

Compound: Isobornyl methacrylate [Ref1, reference compound]
- Viscosity ([1]; 25°C (room temperature)): 8 mPa.s
- Viscosity ([1]; 40°C): 6 mPa.s
- Viscosity ([1]; 50°C): 4 mPa.s
- Viscosity ([1]; 70°C): 3 mPa.s
- Viscosity ([1]; 90°C): 2 mPa.s
- Viscosity ([1]; 100°C): 2 mPa.s
- Volatility [weight loss %] ([2]; 50°C): 12%
- Volatility [weight loss %] ([2]; 80°C): 65%
- weight loss relative to example 1 ([2]; 80°C): 3 times
- t95% [3]: 67 s
- tmax [3]: 36 s
